Here are results for seven compounds from PMC12720098, “Prolintane analogs as hybrid monoamine transporter ligands: Structural determinants and species differences” (The Journal of Biological Chemistry, 2025).

Molecules are shown by their SMILES. Like-named read-outs stand apart in the source and are kept apart here.

One test deals with T1, hDAT (Homo sapiens, UniProt Q01959).
T1 construct: expressed in transfected cells
Description: Uptake inhibition assay ([3H]DA) in transfected HEK293 cells. It is filed as cell-based. Particulars: for DAT/SERT ratio: human isoform (h), 1/DAT IC50 / 1/SERT IC50. The procedure:
HEK293 cells stably expressing human monoamine transporters hSERT, hDAT or hNET were seeded into poly-D-lysine (PDL) coated 96-well plates with a density of approximately 36,000 cells per well 1 day prior to experiments. A day after seeding, the cell medium was replaced with 200 μl Krebs-HEPES-buffer (KHB; 120 mM NaCl, 3 mM KCl, 2 mM CaCl2·2H2O, 2 mM MgCl2·6H2O, 20 mM D-glucose, pH = 7.3). The test drugs were initially dissolved in Milli-Q H2O or dimethyl sulfoxide (DMSO) at a concentration of 10 to 100 mM. Then, cells were treated with the respective concentration of the test drug diluted in KHB for 5 min as a pre-incubation step. Subsequently, in the uptake step, the solution was replaced with 50 μl/well diluted drug solution and tritiated substrate (hDAT: 0.1 μM [^3H]DA; hNET: 0.02 μM [^3H]MPP^+; hSERT: 0.1 μM [^3H]5-HT) for 1 min (hDAT, hSERT) or 3 min (hNET). After incubation, cells were immediately washed with 200 μl KHB to stop uptake. Uptake was indirectly measured by quantifying beta emission with liquid scintillation counting (Wallac 1450 MicroBeta TriLux Liquid Scintillation Counter & Lumi; GMI). Therefore, 200 μl Ultima Gold XR scintillation cocktail (PerkinElmer, MA, USA) was added to each well.
(§1) Half-maximal inhibitory concentrations (IC50) were obtained from fitting a sigmoidal dose–response ( Y=Bottom+Top−Bottom/1+10^((LogIC50−X)·HillSlope) ) in GraphPad Prism 10.3.1 (GraphPad Software Inc.). Uptake inhibition data were evaluated by one-way ANOVA followed by Tukey's multiple comparisons test. Release data were analyzed using a two-way ANOVA (batch release) or a mixed-effects model with Geisser-Greenhouse correction (time-dependent traces) employing Šidák correction for comparing differences between compounds with or without the addition of monensin.

A further test deals with T2, rDAT (Rattus norvegicus, UniProt P23977).
T2 construct: As a means to evaluate transporter activity of prolintane analogs in native tissue preparation; from tissue; host or cells: rat caudate synaptosomes
T2 sequence (P23977 whole entry): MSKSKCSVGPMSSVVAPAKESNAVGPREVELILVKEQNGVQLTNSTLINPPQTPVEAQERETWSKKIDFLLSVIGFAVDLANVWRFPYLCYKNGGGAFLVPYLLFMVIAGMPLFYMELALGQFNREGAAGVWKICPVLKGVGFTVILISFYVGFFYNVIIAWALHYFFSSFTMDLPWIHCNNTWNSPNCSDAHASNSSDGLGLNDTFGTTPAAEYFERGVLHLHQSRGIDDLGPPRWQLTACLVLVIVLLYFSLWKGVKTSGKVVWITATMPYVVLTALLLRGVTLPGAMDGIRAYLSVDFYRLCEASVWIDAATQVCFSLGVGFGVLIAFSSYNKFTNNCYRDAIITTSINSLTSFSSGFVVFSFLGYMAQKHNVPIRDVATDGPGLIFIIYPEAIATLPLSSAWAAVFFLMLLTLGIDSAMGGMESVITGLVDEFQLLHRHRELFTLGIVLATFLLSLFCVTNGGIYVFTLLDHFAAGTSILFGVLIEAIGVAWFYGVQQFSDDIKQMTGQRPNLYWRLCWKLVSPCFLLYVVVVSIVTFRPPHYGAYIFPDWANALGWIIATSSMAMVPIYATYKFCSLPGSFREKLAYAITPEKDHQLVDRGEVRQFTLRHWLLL
Description: Uptake inhibition assay ([3H]dopamine) in rat brain synaptosomes. It is filed as biochemical. Particulars: for DAT/SERT ratio: rat isoform (r), 1/DAT IC50 / 1/SERT IC50. The protocol:
(§2) Rats were killed by CO2 narcosis and decapitated, then synaptosomes were prepared from brains using standard procedures. In brief, synaptosomes were prepared from caudate tissue for rat DAT (rDAT) assays, or from whole brain minus caudate and cerebellum for rat NET (rNET) and rat SERT (rSERT) assays. Brain tissue was homogenized in ice-cold 10% sucrose followed by centrifugation at 1000g for 10 min. The resulting supernatant containing crude synaptosomes was kept on ice until use in uptake or release procedures. Uptake inhibition and release assays were carried out as previously described ([62], [63]).
(§3) For uptake inhibition assays, 5 nM [^3H]dopamine, 10 nM [^3H]norepinephrine, or 5 nM [^3H]5-HT was used as the radiolabeled transmitter for rDAT, rNET, or rSERT, respectively. To optimize uptake for a single transporter, unlabeled blockers were included that prevented uptake of [^3H]transmitter by competing transporters: 50 nM GBR 12935 was added to NET and SERT assays to block DAT, 100 nM nomifensine was added to SERT assays to block NET. Uptake assays were initiated by adding 100 μl of tissue to 900 μl Krebs-phosphate buffer (126 mM NaCl, 2.4 mM KCl, 0.83 mM CaCl2, 0.8 mM MgCl2, 0.5 mM KH2PO4, 0.5 mM Na2SO4, 11.1 mM glucose, 0.05 mM pargyline, 1 mg/ml bovine serum albumin, and 1 mg/ml ascorbic acid, pH 7.4) containing test drug and [^3H]transmitter. Uptake assays were terminated by rapid vacuum filtration, and retained radioactivity was quantified with liquid scintillation counting.
(§4) Effects of test drugs on release and uptake inhibition were analyzed by nonlinear regression using GraphPad Prism 9 (GraphPad Scientific, San Diego, CA, USA). Concentration–response values for the uptake inhibition and release were fit to the equation, Y(x)=Ymin+Ymax−Ymin/1+10^((LogP50−LogX)·n) , where x is the concentration of the compound tested, Y(x) is the response measured, Ymax is the maximal response, P50 is either IC50 (the concentration that yields half-maximal uptake inhibition response) or EC50 (the concentration that yields half-maximal release response), and n is the Hill slope parameter.

Another test has as its target T3, rNET (Rattus norvegicus, UniProt Q63380).
T3 construct: As a means to evaluate transporter activity of prolintane analogs in native tissue preparation; from tissue; host or cells: rat brain synaptosomes (whole brain minus caudate and cerebellum)
Description: Uptake inhibition assay ([3H]norepinephrine) in rat brain synaptosomes. It is filed as biochemical. The procedure:
as §2, §3, §4

A further test has as its target T4, hSERT (Homo sapiens, UniProt P31645).
T4 construct: expressed in transfected cells
It is filed as cell-based. Particulars: batch release, % efflux of total uptake, compounds approximately at IC50 concentration. The procedure: Batch release assays were performed as described previously ([44]). In brief, HEK293 cells stably expressing monoamine transporters were seeded similar to the procedure used for uptake inhibition assays. A day after seeding cells were pre-loaded with 50 μl/well 0.015 μM [^3H]MPP^+ (hDAT, hNET), or 0.08 μM [^3H]5-HT (hSERT) for 20 min at 37 °C. Then cells were washed four times for 3 to 4 min each and further incubated with KHB or KHB + monensin. After 10 min of incubation, two (screening) to four (full traces; hSERT) 2 min incubations were performed to establish a baseline release without substance. […] Each fraction was transferred to an empty well in the 96-well plate. For screening, a known inhibitor (hDAT, hNET: 50 μM GBR12909) and releaser (hDAT, hNET: 10 μM S-(+)-amphetamine) were used as controls. Ultima Gold XR scintillation cocktail was added to the remaining cells, and each well contained a release fraction. The counted radioactivity in the respective fraction was expressed as a percentage of total radioactivity at the start of the fraction.
as §1

The target in a further test is rSERT (Rattus norvegicus, UniProt P31652). The test is described as follows: Uptake inhibition assay ([3H]5-HT) in rat brain synaptosomes. The arrangement: As a means to evaluate transporter activity of prolintane analogs in native tissue preparation; from tissue; host or cells: rat brain synaptosomes (whole brain minus caudate and cerebellum). It is filed as biochemical. The protocol: as §2, §3, §4
Chain of rSERT (P31652 whole entry): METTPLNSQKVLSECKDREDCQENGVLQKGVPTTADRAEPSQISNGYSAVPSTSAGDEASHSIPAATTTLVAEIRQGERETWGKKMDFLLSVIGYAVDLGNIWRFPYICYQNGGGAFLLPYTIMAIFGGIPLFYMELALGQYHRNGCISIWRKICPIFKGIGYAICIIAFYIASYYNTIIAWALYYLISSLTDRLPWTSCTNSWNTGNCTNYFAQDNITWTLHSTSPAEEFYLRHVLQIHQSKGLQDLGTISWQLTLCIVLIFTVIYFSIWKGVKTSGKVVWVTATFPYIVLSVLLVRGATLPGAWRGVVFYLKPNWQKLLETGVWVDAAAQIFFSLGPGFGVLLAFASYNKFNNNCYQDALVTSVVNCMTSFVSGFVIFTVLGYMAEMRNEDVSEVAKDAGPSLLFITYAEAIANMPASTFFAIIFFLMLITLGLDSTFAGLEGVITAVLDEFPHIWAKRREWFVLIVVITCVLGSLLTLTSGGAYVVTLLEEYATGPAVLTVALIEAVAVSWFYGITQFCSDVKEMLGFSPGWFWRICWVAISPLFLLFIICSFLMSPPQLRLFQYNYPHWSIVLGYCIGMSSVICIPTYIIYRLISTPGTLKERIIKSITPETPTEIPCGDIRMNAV

T3 sequence (Q63380 1-617): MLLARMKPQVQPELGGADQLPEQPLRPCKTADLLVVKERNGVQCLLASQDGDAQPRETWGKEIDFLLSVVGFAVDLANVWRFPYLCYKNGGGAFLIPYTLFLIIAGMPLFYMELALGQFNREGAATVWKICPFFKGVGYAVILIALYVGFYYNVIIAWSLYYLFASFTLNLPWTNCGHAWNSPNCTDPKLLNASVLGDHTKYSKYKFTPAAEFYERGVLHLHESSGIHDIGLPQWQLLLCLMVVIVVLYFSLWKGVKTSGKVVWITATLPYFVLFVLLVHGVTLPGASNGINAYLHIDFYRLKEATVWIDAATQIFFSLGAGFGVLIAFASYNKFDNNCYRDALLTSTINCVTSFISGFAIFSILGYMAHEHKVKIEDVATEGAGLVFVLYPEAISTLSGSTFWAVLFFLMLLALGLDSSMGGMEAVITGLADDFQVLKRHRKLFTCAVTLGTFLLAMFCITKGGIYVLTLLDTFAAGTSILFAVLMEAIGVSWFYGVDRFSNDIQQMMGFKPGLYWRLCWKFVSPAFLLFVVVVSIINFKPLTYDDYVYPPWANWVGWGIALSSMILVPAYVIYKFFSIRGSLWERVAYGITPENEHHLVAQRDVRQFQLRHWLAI
T1 sequence (Q01959 whole entry): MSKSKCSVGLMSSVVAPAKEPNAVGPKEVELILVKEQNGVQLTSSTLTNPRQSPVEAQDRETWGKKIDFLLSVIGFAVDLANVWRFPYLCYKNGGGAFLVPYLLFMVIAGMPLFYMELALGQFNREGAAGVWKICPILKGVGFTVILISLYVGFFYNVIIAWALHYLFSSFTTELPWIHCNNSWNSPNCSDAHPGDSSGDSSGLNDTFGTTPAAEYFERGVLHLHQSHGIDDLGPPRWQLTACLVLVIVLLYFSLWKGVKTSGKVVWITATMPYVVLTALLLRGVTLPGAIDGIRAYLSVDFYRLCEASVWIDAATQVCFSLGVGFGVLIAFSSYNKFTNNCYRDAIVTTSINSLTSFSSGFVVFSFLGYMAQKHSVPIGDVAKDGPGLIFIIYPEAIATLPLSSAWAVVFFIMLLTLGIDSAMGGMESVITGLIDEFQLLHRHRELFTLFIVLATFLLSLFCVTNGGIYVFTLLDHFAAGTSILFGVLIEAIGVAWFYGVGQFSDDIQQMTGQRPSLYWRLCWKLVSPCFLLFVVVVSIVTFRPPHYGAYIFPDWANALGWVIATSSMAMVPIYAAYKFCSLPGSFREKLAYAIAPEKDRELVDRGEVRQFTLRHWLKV
T4 sequence (P31645 whole entry): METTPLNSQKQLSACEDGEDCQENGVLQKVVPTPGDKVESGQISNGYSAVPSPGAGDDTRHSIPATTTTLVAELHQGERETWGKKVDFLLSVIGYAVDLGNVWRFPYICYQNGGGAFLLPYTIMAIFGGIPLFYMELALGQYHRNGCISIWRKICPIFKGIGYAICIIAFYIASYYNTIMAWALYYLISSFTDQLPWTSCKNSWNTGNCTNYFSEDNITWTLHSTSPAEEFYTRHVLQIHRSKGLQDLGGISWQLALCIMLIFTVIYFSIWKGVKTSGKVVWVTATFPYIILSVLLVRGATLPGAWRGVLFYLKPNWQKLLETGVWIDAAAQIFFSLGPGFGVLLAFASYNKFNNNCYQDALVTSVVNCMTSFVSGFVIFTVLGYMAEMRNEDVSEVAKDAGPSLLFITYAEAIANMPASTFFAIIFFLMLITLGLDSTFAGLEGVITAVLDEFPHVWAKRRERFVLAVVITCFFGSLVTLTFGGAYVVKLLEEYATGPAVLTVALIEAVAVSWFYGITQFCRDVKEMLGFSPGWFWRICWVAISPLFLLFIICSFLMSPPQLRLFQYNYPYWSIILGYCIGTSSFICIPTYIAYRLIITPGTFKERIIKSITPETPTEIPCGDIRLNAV

On to `CCCC(Cc1ccccc1F)N1CCCC1` (stereo not drawn) [2-Fluoroprolintane, 1-[1-(2-fluorophenyl)pentan-2-yl]pyrrolidine], for which the IC50 on hDAT stood at 109 ± 19 nM; against rDAT it was 117 ± 10 nM; at rNET it was 63 ± 6 nM; on rSERT it was 2230 ± 152 nM. In addition, the DAT/SERT ratio came out at 323 on hDAT and 19 on rDAT. On hSERT, the “hSERT-mediated efflux, predicted (LS) mean diff, No mon - Mon” value is -6.392.

As for `CCCC(Cc1ccccc1C)N1CCCC1` (stereo not drawn) [2-Methylprolintane, 1-[1-(2-methylphenyl)pentan-2-yl]pyrrolidine], the IC50 was found to be 185 ± 65 nM at hDAT; 324 ± 25 nM against rDAT; 138 ± 13 nM on rNET; 323 ± 280 nM on rSERT (read-out: [3H]5-HT uptake SERT IC50, rat isoform (r), rat brain synaptosomes, mean ± SD). Besides, the values for the DAT/SERT ratio on hDAT and on rDAT were 23 and 1, respectively. On hSERT, the “hSERT-mediated efflux, predicted (LS) mean diff, No mon - Mon” value was -4.459.

As for `CCCC(Cc1cccc(F)c1)N1CCCC1` (stereo not drawn) [3-Fluoroprolintane, 1-[1-(3-fluorophenyl)pentan-2-yl]pyrrolidine], the IC50 at hDAT is 64 ± 20 nM; at rDAT, 58 ± 4 nM; against rNET, 28 ± 3 nM; on rSERT it was 521 ± 116 nM. Also, the DAT/SERT ratio is 210 at hDAT and 9 at rDAT. Further, the “hSERT-mediated efflux, predicted (LS) mean diff, No mon - Mon” value on hSERT is -5.404.

Turning to `CCCC(Cc1cccc(C)c1)N1CCCC1` (stereo not drawn) [3-Methylprolintane, 1-[1-(3-methylphenyl)pentan-2-yl]pyrrolidine], the IC50 at hDAT was found to be 56 ± 11 nM; against rDAT it was 111 ± 8 nM; against rNET it was 62 ± 9 nM; against rSERT, 139 ± 14 nM. For the same compound, the DAT/SERT ratio at hDAT was 53; at rDAT, 1.25. Moreover, at hSERT, the “hSERT-mediated efflux, predicted (LS) mean diff, No mon - Mon” value is listed as -5.6.

Regarding `CCCC(Cc1ccc(F)cc1)N1CCCC1` (stereo not drawn) [4-Fluoroprolintane, 1-[1-(4-fluorophenyl)pentan-2-yl]pyrrolidine], the IC50 came out at 109 ± 41 nM against hDAT, 213 ± 13 nM at rDAT, 217 ± 21 nM against rNET and 884 ± 78 nM on rSERT. For the same compound, the DAT/SERT ratio at hDAT was 179; on rDAT, 4.2. The “hSERT-mediated efflux, predicted (LS) mean diff, No mon - Mon” value on hSERT is -7.206.

In the case of `CCCC(Cc1ccc(C)cc1)N1CCCC1` (stereo not drawn) [4-Methylprolintane, 1-[1-(4-methylphenyl)pentan-2-yl]pyrrolidine], the IC50 against hDAT was 16 ± 2 nM; against rDAT, 37 ± 3 nM; at rNET, 45 ± 5 nM; against rSERT it was 72 ± 5 nM. Also, the DAT/SERT ratio on hDAT was 159; on rDAT, 1.9. Further, the “inhibitory potency at hDAT compared to pyrovalerone” value on hDAT (pyrovalerone value ref 53) is “four-fold greater”. For the same compound, on hSERT, the “hSERT-mediated efflux, predicted (LS) mean diff, No mon - Mon” value is given as -4.314.

Take `CCCC(Cc1ccccc1)N1CCCC1` (stereo not drawn) [Prolintane, 1-(1-phenylpentan-2-yl)pyrrolidine]: the IC50 on hDAT is 43 ± 24 nM; against rDAT, 61 ± 6 nM; against rNET, 39 ± 4 nM; on rSERT, 2320 ± 169 nM. Further, the DAT/SERT ratio was determined as 670 at hDAT and 38 at rDAT. In addition, the “hSERT-mediated efflux, predicted (LS) mean diff, No mon - Mon” value at hSERT is on record as -7.218. The “IC50 at rSERT, fold weaker than at rDAT and rNET” value against rSERT (rat brain synaptosomes) is recorded as “about 50 fold”.

The IC50 is the midpoint of a concentration-inhibition curve.
